Earlier results as cited in patent publication US9226906B2, “Method and nutritional supplement for enhancing weight gain of a mammal” (Supragenix, LLC, priority 2013, dated 2016).

target: CB1 (Homo sapiens, UniProt P21554)
Sequence (P21554 whole entry, species assumed): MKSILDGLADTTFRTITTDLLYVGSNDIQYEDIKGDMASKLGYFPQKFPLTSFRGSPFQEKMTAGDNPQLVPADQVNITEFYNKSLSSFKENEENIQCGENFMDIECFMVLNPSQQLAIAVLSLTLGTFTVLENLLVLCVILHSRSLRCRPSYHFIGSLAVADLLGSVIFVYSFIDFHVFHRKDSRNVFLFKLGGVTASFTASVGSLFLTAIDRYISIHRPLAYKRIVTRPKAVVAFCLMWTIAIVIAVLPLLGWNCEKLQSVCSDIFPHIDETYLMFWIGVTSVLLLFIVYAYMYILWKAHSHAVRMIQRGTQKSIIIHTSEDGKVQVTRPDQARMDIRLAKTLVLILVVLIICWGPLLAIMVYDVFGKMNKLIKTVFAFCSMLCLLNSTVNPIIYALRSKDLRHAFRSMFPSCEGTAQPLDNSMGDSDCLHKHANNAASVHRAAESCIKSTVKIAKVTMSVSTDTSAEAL

Row | Compound | activating CB1
1 | CCC/C=C\CC/C=C/C=C/C(=O)NCC(C)C [Dodeca-2E,4E,8Z-trienoic acid isobutylamide] | effective in activating CB1
2 | CCCCCCC/C=C/C=C/C(=O)NCC(C)C [Dodeca-2E,4E-dienoic acid isobutylamide] | effective in activating CB1
3 | CC#CC#CCC/C=C\C=C\C(=O)NCC(C)C [Dodeca-2E,4Z-diene-8,10-diynoic acid isobutylamide] | effective in activating CB1
4 | CC#CC#CCCCC/C=C/C(=O)NCC(C)CC (centres unmarked) [Dodeca-2E-ene-8,10-diynoic acid 2-methylbutylamide] | effective in activating CB1
5 | C#CC#CC/C=C\CCCCC/C=C/C(=O)NCC(C)C [Pentadeca-2E,9Z-diene-12,14-diynoic acid isobutylamide] | effective in activating CB1
6 | C#CC#CCCCCC=CC(=O)NCC(C)C [Undeca-2-ene-8,10-diynoic acid isobutylamide] | effective in activating CB1
7 | C#CC#CCC/C=C/C=C\C(=O)NCC(C)C [Undeca-2Z,4E-diene-8,10-diynoic acid isobutylamide] | effective in activating CB1
8 | Dodeca-2E,4E,8Z,10E/Z-tetraenoic acid isobutylamides | effective in activating CB1
